Data from US4112228A, “7-(D-α-Hydroxy-2-arylacetamido)-3-(2-carboxyalkyl-2,3-dihydro-s-tri azolo-[4,3-b]pyridazin-3-on-6-ylthiomethyl)-3-cephem-4-carboxylic acids and derivatives” (priority 1977, dated 1978).
≈ marks a conversion by molar mass, not a printed value. Where two headings read alike, the source gives them in different places.

Experiments:
[1] = tested on: Enterob. cloacae; experiment: MIC by Steers' agar dilution method
[2] = tested on: Pr. rettgeri; experiment: MIC by Steers' agar dilution method; details: Providencia rettgeri
[3] = tested on: P. vulgaris A9436 (Pv-1); experiment: Standard experimental infection (single sc treatment); details: for No. of survivors/No. tested: Run C-808, single sc
[4] = tested on: E. coli Juhl; experiment: Standard experimental infection in mice; type: in vivo; details: Table 6
[5] = tested on: Shig. flexneri; experiment: MIC by Steers' agar dilution method; type: cell-based; details: Shigella flexneri, MHA
[6] = tested on: S. pyogenes; experiment: MIC by Steers' agar dilution method
[7] = tested on: E. cloacae A20464 (El-19); experiment: Standard experimental infection in mice; type: in vivo; details: Run C-811
[8] = tested on: S. paratyphi; experiment: MIC by Steers' agar dilution method; details: Salmonella enterica
[9] = tested on: S. aureus Smith; experiment: Standard experimental infection in mice; type: in vivo; details: Table 6
[10] = tested on: S. typhimurium; experiment: MIC by Steers' agar dilution method; details: Salmonella enterica

For `O=C(O)Cn1nc2ccc(SCC3=C(C(=O)O)N4C(=O)C(NC(=O)[C@H](O)c5ccccc5)[C@H]4SC3)nn2c1=O` (stereo partly drawn) [BB-S488, 7-(D-Mandelamido)-3-(2-carboxymethyl-2,3-dihydro-s-triazolo[4,3-b]pyridazin-3-on-6-ylthiomethyl)-3-cephem-4-carboxylic Acid], the MIC ([1]; El-2 A20364 (β-lactamase), MHA, Table 4) was 3.1 µg/mL (≈ 5.41 µM), the MIC ([1]; El-2 A20364 (β-lactamase), NA, Table 4) was 12.5 µg/mL (≈ 21.8 µM) and the MIC ([1]; El-2 A20364, MHA, Table 3) was 3.1 µg/mL (≈ 5.41 µM). For the same molecule, the MIC ([1]; El-4 A20650, MHA, Table 3) was 1.6 µg/mL (≈ 2.79 µM), the MIC ([1]; El-6 A9657, MHA, Table 3) was 0.8 µg/mL (≈ 1.4 µM) and the MIC ([1]; El-7 A9659, MHA, Table 3) was 1.6 µg/mL (≈ 2.79 µM). It also gave an MIC ([1]; El-8 A9655, MHA, Table 3) of 1.6 µg/mL (≈ 2.79 µM), an MIC ([1]; El-9 A20021, MHA, Table 3) of over 100 µg/mL and an MIC ([1]; El-11 A20344 (β-lactamase), HIA, Table 4) of over 100 µg/mL. For the same molecule, the MIC ([1]; El-11 A20344 (β-lactamase), MHA, Table 4) was over 100 µg/mL, the MIC ([1]; El-11 A20344 (β-lactamase), NA, Table 4) was over 100 µg/mL and the MIC ([1]; El-11 A20344, MHA, Table 3) was over 100 µg/mL. For the same molecule, the MIC ([1]; El-12 A21006, MHA, Table 3) was 1.6 µg/mL (≈ 2.79 µM), the MIC ([1]; El-14 A20953, MHA, Table 3) was 0.8 µg/mL (≈ 1.4 µM) and the MIC ([1]; MHA, Example 10) was 3.1 µg/mL (≈ 5.41 µM). For the same molecule, the MIC ([2]; A15167, MHA, Table 1) was 0.05 µg/mL (≈ 0.0873 µM), the MIC ([2]; MHA, Example 10) was 0.2 µg/mL (≈ 0.349 µM) and the MIC ([2]; Pr-1 A15167, HIA, Table 4) was 0.1 µg/mL (≈ 0.175 µM). It also gave an MIC ([2]; Pr-1 A15167, MHA, Table 3) of 0.1 µg/mL (≈ 0.175 µM), an MIC ([2]; Pr-1 A15167, MHA, Table 4) of 0.05 µg/mL (≈ 0.0873 µM) and an MIC ([2]; Pr-1 A15167, NA, Table 4) of 0.4 µg/mL (≈ 0.699 µM). The MIC ([2]; Pr-2 A9637, MHA, Table 3) was 0.1 µg/mL (≈ 0.175 µM), the MIC ([2]; Pr-4 A20645, MHA, Table 3) was 0.1 µg/mL (≈ 0.175 µM) and the MIC ([2]; Pr-5 A20915, MHA, Table 3) was 0.2 µg/mL (≈ 0.349 µM). The MIC ([2]; Pr-6 A20920, MHA, Table 3) was 0.1 µg/mL (≈ 0.175 µM), the ED50 ([3]; Proteus vulgaris, in Mus musculus, sc, read-out: PD50) was 1.1 mg/kg and the “No. of survivors/No. tested” value ([3]; 0.4 mg./kg.) was 1/5. The “No. of survivors/No. tested” value ([3]; 1.6 mg./kg.) was 3/5, the “No. of survivors/No. tested” value ([3]; 6.3 mg./kg.) was 5/5 and the “No. of survivors/No. tested” value ([3]; 25 mg./kg.) was 5/5. The “No. of survivors/No. tested” value ([4]; 0.1 mg./kg.) was 2/5, the “No. of survivors/No. tested” value ([4]; 0.4 mg./kg.) was 5/5 and the “No. of survivors/No. tested” value ([4]; 1.6 mg./kg.) was 5/5. For the same molecule, the “No. of survivors/No. tested” value ([4]; 6.3 mg./kg.) was 5/5, the “No. of survivors/No. tested” value ([4]; 25 mg./kg.) was 5/5 and the ED50 ([4]; Escherichia coli, read-out: PD50) was 0.12 mg/kg. The MIC ([5]; A9684, Table 1) was 12.5 µg/mL (≈ 21.8 µM), the MIC ([5]; Example 10) was 25 µg/mL (≈ 43.7 µM) and the MIC ([5]; Sr-1 A9684, Table 3) was 12.5 µg/mL (≈ 21.8 µM). For the same molecule, the MIC [6] was 0.2 µg/mL (≈ 0.349 µM), the MIC ([6]; Sp-2 Dick, MHA, Table 2) was 0.4 µg/mL (≈ 0.699 µM) and the MIC ([6]; Sp-3 A9604, MHA, Table 2) was 0.4 µg/mL (≈ 0.699 µM). For the same molecule, the MIC ([6]; Sp-5 A15040, MHA, Table 2) was 0.4 µg/mL (≈ 0.699 µM), the MIC ([6]; Sp-6 A20066, MHA, Table 2) was 0.4 µg/mL (≈ 0.699 µM) and the MIC ([6]; Sp-7 Dig 7, MHA, Table 2) was 0.4 µg/mL (≈ 0.699 µM). For the same molecule, the MIC ([6]; Sp-8 A15041, MHA, Table 2) was 0.4 µg/mL (≈ 0.699 µM), the MIC ([6]; Sp-9 A20201, MHA, Table 2) was 0.4 µg/mL (≈ 0.699 µM) and the MIC ([6]; Sp-10 A20202, MHA, Table 2) was 0.4 µg/mL (≈ 0.699 µM). The MIC ([6]; Streptococcus pyogenes) was 0.4 µg/mL (≈ 0.699 µM), the ED50 ([7]; Enterobacter cloacae, read-out: PD50) was 0.54 mg/kg and the “No. of survivors/No. tested” value ([7]; 0.4 mg./kg.) was 2/5. The “No. of survivors/No. tested” value ([7]; 1.6 mg./kg.) was 4/5, the “No. of survivors/No. tested” value ([7]; 6.3 mg./kg.) was 5/5 and the “No. of survivors/No. tested” value ([7]; 25 mg./kg.) was 5/5. For the same molecule, the “No. of survivors/No. tested” value ([7]; 100 mg./kg.) was 5/5, the MIC [8] was 0.1 µg/mL (≈ 0.175 µM) and the “No. of survivors/No. tested” value ([9]; 0.1 mg./kg.) was 2/5. For the same molecule, the “No. of survivors/No. tested” value ([9]; 0.4 mg./kg.) was 5/5, the “No. of survivors/No. tested” value ([9]; 1.6 mg./kg.) was 5/5 and the “No. of survivors/No. tested” value ([9]; 6.3 mg./kg.) was 5/5. For the same molecule, the “No. of survivors/No. tested” value ([9]; 25 mg./kg.) was 5/5, the ED50 ([9]; Staphylococcus aureus, read-out: PD50) was 0.12 mg/kg and the MIC [10] was 0.1 µg/mL (≈ 0.175 µM).
